Like-named read-outs stand apart in the source and are kept apart here.
Columns and labels:
HaCaT = settings: 24 hours
Experimental: (§1) Potential apoptosis and necrosis induction was studied in the cell lines using Annexin V conjugated with Alexa Fluor 488 (Molecular Probes) and Propidium Iodide (PI, Sigma) fluorochromes by Flow Cytometry, to measure early apoptotic event and necrosis respectively, after exposure to different concentrations of sulforaphane or sulforaphane-loaded nanoemulsion suspensions. HaCaT, and 3T3 cells were seeded in 24 well plates at a density of 100.000 cells/well. 24 hours later cells were exposed to test items for further 24 hours. After the exposure, 5 µL of the annexin V conjugates were added to each 100 µL of cell suspension replicate (minimum of 10.000 cell/100µL) and incubated at room temperature for 15 minutes. After incubation, cells were washed and submitted to flow cytometry acquisition. Immediately before acquisition, the stained cells were contrasted with PI (5 µg/ml) to detect necrotic cells and analysed by Cytomics FC500 Flow Cytometer. Three independent experiments and at least three replicates for each experimental point were carried out. Each experiment included a negative control (untreated cells). […]

3T3 = settings: 3T3, 24 hours
Experimental: as §1

[1] = 6.25 mM sulforaphane (6.26 printed for the nanoemulsion)

SMILES: C[S+]([O-])CCCCN=C=S (racemic) [Sulforaphane, D,L-Sulforaphane]
- AnnexinV (percentage of positive cells) (HaCaT; 3.125 mM sulforaphane): 5.90±0.98%
- AnnexinV+PI (percentage of positive cells) (HaCaT; 3.125 mM sulforaphane): 1.27±0.06%
- C neg (percentage of cells) (HaCaT; 3.125 mM sulforaphane): 90.97±1.77%
- PI (percentage of positive cells) (HaCaT; 3.125 mM sulforaphane): 1.87±0.81%
- AnnexinV (percentage of positive cells) (HaCaT; [1]): 7.33±1.82%
- AnnexinV+PI (percentage of positive cells) (HaCaT; [1]): 1.83±0.15%
- C neg (percentage of cells) (HaCaT; [1]): 88.50±1.65%
- PI (percentage of positive cells) (HaCaT; [1]): 2.33±0.61%
- AnnexinV (percentage of positive cells) (HaCaT; 12.5 mM sulforaphane): 7.17±1.74%
- AnnexinV+PI (percentage of positive cells) (HaCaT; 12.5 mM sulforaphane): 2.03±0.35%
- C neg (percentage of cells) (HaCaT; 12.5 mM sulforaphane): 88.10±3.40%
- PI (percentage of positive cells) (HaCaT; 12.5 mM sulforaphane): 2.70±0.30%
- AnnexinV (percentage of positive cells) (3T3; 3.125 mM sulforaphane): 7.73±1.23%
- AnnexinV+PI (percentage of positive cells) (3T3; 3.125 mM sulforaphane): 1.93±0.15%
- C neg (percentage of cells) (3T3; 3.125 mM sulforaphane): 86.23±1.77%
- PI (percentage of positive cells) (3T3; 3.125 mM sulforaphane): 4.10±2.38%
- AnnexinV (percentage of positive cells) (3T3; [1]): 7.83±1.50%
- AnnexinV+PI (percentage of positive cells) (3T3; [1]): 2.03±0.46%
- C neg (percentage of cells) (3T3; [1]): 86.97±1.68%
- PI (percentage of positive cells) (3T3; [1]): 3.17±0.76%
- AnnexinV (percentage of positive cells) (3T3; 12.5 mM sulforaphane): 11.07±1.59%
- AnnexinV+PI (percentage of positive cells) (3T3; 12.5 mM sulforaphane): 3.07±0.67%
- C neg (percentage of cells) (3T3; 12.5 mM sulforaphane): 81.57±3.40%
- PI (percentage of positive cells) (3T3; 12.5 mM sulforaphane): 4.30±0.54%

— EP3995133A1, “STABLE NANOEMULSIONS” (Fundación Tecnalia Research & Innovation, priority 2020, dated 2022)
